Calls of active or inactive are those of the source. The calls are words filed in the database; no cut-off is given here.
Experiments:
Lu1 = experiment: Cytotoxicity against human Lu1 cells; type: functional, cell-based
MCF7 = experiment: Cytotoxicity against human MCF7 cells; type: functional; details: read-out: ED50 (the source's name)
HT-29 [1] = experiment: Induction of apoptosis in human HT-29 cells assessed as change in mitochondrial transmembrane potential after 2 hrs by JC1 staining based fluorescence assay; type: functional; details: HT-29, 2 h, read-out: ED50 (the source's name)
[2] = molecular target: T1, Nuclear factor NF-kappa-B p105 subunit (Homo sapiens) (UniProt P19838); experiment: Inhibition of NF kappaB p50 subunit signaling pathway in human HeLa cells by biotinylated-ELISA; type: cell-based
T1 sequence (whole entry): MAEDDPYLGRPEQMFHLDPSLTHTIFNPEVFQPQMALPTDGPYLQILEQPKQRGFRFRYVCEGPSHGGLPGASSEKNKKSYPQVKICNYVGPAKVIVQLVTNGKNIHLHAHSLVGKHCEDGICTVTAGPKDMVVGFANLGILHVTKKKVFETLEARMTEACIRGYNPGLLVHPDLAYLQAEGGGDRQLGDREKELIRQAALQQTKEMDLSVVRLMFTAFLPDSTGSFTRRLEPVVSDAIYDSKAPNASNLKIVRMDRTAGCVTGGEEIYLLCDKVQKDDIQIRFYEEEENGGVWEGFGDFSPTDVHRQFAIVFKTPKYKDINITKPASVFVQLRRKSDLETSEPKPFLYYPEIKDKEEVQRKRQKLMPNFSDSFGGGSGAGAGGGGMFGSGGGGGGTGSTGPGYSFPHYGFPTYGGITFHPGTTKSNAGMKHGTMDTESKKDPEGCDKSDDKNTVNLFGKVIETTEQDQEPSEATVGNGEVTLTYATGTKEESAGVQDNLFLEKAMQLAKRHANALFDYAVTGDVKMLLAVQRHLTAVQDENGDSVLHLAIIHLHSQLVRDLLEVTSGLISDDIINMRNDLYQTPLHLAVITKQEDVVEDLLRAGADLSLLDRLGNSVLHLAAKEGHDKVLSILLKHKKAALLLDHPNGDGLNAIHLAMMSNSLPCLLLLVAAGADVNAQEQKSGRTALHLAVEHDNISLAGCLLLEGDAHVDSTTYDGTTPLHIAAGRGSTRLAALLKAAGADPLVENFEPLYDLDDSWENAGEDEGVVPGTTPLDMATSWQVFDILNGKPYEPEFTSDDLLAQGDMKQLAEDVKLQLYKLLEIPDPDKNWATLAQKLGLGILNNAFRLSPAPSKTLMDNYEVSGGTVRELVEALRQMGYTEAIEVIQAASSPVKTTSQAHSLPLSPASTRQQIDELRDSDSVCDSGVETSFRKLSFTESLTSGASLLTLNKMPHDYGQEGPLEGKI

HL-60 = experiment: Inhibition of chymotrypsin-like activity of proteasome in human HL60 cells assessed as free AMC level after 10 mins; type: subcellular
HT-29 [3] = experiment: Cytotoxicity against human HT-29 cells; type: functional; details: read-out: ED50 (the source's name)

SMILES	EC50 (HT-29 [1])	ED50 [2]	ED50 (HL-60)	Activity (Lu1)	EC50 (MCF7)	EC50 (HT-29 [3])
CC(OC(=O)/C=C/c1ccc(O)cc1)C(=O)[C@H]1C[C@@H]1[C@H](O)[C@H]1CC=CC(=O)O1 (stereo not given in full)	0.075 µM	15.3 µM		inactive	3.6 µM	
CC(=O)O[C@@H]([C@H]1C[C@@H]1C(=O)C(C)OC(=O)/C=C/c1ccc(O)cc1)[C@H]1CC=CC(=O)O1 (stereo not given in full) [BREVIPOLIDE A]		> 50 µM		inactive	> 10 µM	5.8 µM
COc1ccc(-c2oc3cc(OC)c(O)c(O)c3c(=O)c2OC)cc1O		> 50 µM	17 µM	inactive		
CC(=O)O[C@@H]([C@H]1C[C@@H]1C(=O)C(C)OC(=O)/C=C\c1ccc(O)cc1)[C@H]1CC=CC(=O)O1 (stereo not given in full) [BREVIPOLIDE B]		> 50 µM		inactive	6.1 µM	6.1 µM
COc1ccc([C@@]23Oc4cc(OC)cc(OC)c4[C@]2(O)[C@H](O)[C@H](C(=O)N(C)C)[C@H]3c2ccccc2)cc1		2 µM				

Continued, in another order:

EC50 (HT-29 [1])	ED50 [2]	ED50 (HL-60)	SMILES	Activity (Lu1)	EC50 (MCF7)	EC50 (HT-29 [3])
	> 50 µM	38 µM	CC(OC(=O)/C=C/c1ccc(O)c(O)c1)C(=O)[C@H]1C[C@@H]1[C@H](O)[C@H]1CC=CC(=O)O1 (stereo not given in full) [BREVIPOLIDE C]	inactive	> 10 µM	
	> 50 µM		CC(OC(=O)/C=C\c1ccc(O)cc1)C(=O)[C@H]1C[C@@H]1[C@H](O)[C@H]1CC=CC(=O)O1 (stereo not given in full) [BREVIPOLIDE F]	inactive	6.7 µM	
	> 50 µM	44.5 µM	CC(OC(=O)/C=C\c1ccc(O)c(O)c1)C(=O)[C@H]1C[C@@H]1[C@H](O)[C@H]1CC=CC(=O)O1 (stereo not given in full) [BREVIPOLIDE D]	inactive	> 10 µM	
	> 50 µM		CC(=O)O[C@@H]([C@H]1C[C@@H]1C(=O)C(C)OC(=O)/C=C/c1ccc(O)c(O)c1)[C@H]1CC=CC(=O)O1 (stereo not given in full) [BREVIPOLIDE E]	inactive	> 10 µM	
